Activity calls are given as the source filed them.
Assays:
[1] = P. falciparum late gametocyte killing, dose response, luminescence (AID 1117278); assay type: functional, cell-based;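 also: gametocytes exposed to compound for 24 hours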
[2] = Jurkat T cell cytotoxicity, dose response, cytotoxicity control for P. falciparum gametocyte viability project, luminescence (AID 1117277); assay type: functional, cell-based;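 also: potency reflects loss of cellular ATP meaning fewer viable cells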
[3] = target: T1, Estrogen receptor (Homo sapiens, UniProt P03372); assay: potentiators of ERα–SRC-1 coactivator binding, dose response, biochemical, TR-FRET, ERα LBD (AID 737)
T1 sequence (P03372 whole entry): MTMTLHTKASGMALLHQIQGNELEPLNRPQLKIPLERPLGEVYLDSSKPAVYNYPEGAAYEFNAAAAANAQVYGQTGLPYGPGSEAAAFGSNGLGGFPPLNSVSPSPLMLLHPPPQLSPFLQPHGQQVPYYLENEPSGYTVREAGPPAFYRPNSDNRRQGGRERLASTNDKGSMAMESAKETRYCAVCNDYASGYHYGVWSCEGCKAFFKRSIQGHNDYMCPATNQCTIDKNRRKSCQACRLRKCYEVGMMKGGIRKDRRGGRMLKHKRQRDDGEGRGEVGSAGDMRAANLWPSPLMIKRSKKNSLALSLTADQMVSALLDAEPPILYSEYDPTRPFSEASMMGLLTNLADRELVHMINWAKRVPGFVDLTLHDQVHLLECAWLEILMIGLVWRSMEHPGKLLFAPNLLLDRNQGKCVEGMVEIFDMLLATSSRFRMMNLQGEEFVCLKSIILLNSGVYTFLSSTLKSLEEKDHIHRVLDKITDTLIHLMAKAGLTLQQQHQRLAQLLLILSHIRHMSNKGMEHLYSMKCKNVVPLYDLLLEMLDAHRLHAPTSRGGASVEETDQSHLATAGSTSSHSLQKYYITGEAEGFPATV

[4] = target: Acyl-homoserine lactone acylase PvdQ (Pseudomonas aeruginosa (strain LESB58), UniProt Q9I194); assay: P. aeruginosa PvdQ acylase inhibitors, dose response, biochemical, fluorescence, plate reader and imaging, cherry-picks (AID 493231)
[5] = target: T2, Bcl-2-related protein A1 (Mus musculus, UniProt Q07440); assay: Bfl-1 inhibitors blocking BH3 peptide binding, confirmation, biochemical, TR-FRET, mouse Bfl-1 (AID 621);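 also: TR-FRET binding of GST-Bfl-1 to FITC-labelled Bid peptide via terbium antibody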
T2 sequence (Q07440 whole entry): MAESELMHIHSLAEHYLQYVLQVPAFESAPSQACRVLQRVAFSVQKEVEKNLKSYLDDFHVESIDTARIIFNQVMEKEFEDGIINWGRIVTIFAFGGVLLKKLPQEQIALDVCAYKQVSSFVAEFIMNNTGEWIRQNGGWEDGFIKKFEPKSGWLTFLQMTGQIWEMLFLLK

[6] = target: T2, Bcl-2-related protein A1; assay: Bfl-1 binding inhibitors, SAR follow-up, biochemical, fluorescence polarization (AID 1070)
[7] = target: Glyceraldehyde-3-phosphate dehydrogenase (Homo sapiens, UniProt P04406)
[8] = target: T3, Heat shock factor protein 1 (Mus musculus, UniProt P38532); assay: inhibition of MG132-induced HSE-luciferase signal, confirmation, cell-based, NIH3T3, luminescence, dose retest (AID 2382); assay type: functional;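 also: NIH3T3 fibroblasts with HSF1-driven luciferase reporter stressed by proteasome inhibitor MG132; luminescence from HSF1-driven luciferase expression after 8 hours of MG132 stress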
T3 sequence (P38532 whole entry): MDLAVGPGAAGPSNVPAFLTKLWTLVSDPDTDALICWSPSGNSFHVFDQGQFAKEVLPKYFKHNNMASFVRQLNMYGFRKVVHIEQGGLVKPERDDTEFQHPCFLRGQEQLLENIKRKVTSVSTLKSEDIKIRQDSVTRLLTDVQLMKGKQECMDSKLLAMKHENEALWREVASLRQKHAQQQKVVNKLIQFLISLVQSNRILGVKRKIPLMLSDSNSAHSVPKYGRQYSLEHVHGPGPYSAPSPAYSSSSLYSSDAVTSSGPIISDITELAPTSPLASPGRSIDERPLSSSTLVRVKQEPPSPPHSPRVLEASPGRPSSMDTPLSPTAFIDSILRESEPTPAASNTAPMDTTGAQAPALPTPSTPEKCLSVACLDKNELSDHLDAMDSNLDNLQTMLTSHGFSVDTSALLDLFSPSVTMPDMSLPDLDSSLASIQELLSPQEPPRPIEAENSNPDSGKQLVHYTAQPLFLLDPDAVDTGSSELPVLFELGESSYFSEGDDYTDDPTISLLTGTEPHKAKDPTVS

[9] = target: T4, Neuropeptide Y receptor type 1 (Homo sapiens, UniProt P25929); assay type: functional;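 also: HEK293 cells with a CNG channel challenged with NPY then isoproterenol; potency as antagonist that reverses NPY suppression of cAMP signal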
T4 sequence (P25929 whole entry): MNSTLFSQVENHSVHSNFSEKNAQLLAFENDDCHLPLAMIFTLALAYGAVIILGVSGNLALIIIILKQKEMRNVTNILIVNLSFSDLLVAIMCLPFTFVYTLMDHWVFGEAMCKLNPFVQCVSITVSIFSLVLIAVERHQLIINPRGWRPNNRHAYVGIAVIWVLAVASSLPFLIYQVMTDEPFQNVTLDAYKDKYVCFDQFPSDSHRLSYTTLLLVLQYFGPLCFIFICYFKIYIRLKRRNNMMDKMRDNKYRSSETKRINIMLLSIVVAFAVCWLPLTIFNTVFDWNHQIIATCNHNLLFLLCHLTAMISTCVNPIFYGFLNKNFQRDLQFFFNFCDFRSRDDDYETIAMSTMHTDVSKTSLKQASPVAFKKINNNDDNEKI

[10] = target: Estrogen receptor beta (Homo sapiens, UniProt Q92731);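 also: recombinant ER-beta bound to coactivator SRC1 peptide in presence of estradiol agonist; inhibitors block coactivator peptide binding and lower the FRET signal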
[11] = target: NADPH oxidase 1 (Homo sapiens, UniProt Q9Y5S8); assay type: functional, cell-based;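 also: Cell-based assay with luminescence read-out, IC50 derived from inhibitor dose-response curves; intracellular ROS from endogenous NOX1 in intact HT29 colon cancer cells; potency of inhibitors that lower the ROS luminescence signal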
[12] = target: Luciferin 4-monooxygenase (Photinus pyralis, UniProt P08659); assay: Counter Screen for Luciferase-based Assay Positives. [Related pubchem assays: 620, 618, 411 ]
[13] = system: HT-1080; assay: cytotoxicity in HT1080 fibrosarcoma cells, cell-based, fluorescence readout (AID 620); assay type: functional; conditions: Homo sapiens
[14] = inhibitors of Bluetongue virus cytopathic effect, confirmation, arbovirus, BSR cells (AID 1250); assay type: functional;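 also: protection from viral cytopathic effect measured as cell viability by ATP luminescence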
[15] = target: T4, Neuropeptide Y receptor type 1; assay: NPY-Y1 receptor antagonist potency, dose response, cell-based (AID 1277); assay type: functional
[16] = cytotoxicity in HEK-293T cells, dose response, cytotoxicity control for BCR NF-kB inhibitor project, luminescence, B-cell screen hits (AID 489021); assay type: functional, cell-based;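 also: HEK-293T cells carrying an NF-kB luciferase reporter; cells exposed to compound for about 14 hours before viability readout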
[17] = system: INS1; assay: beta cell apoptosis inhibitors, cytokine rescue, dose response, luminescence, retest (AID 449756); assay type: functional, cell-based; conditions: Rattus norvegicus;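 also: cell death triggered by IL-1 beta plus TNF-alpha plus IFN-gamma mixture; protective hits raise ATP signal compared with cytokine alone wells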
[18] = C. albicans growth with fluconazole, confirmation, fluorescence, retest (AID 2467); assay type: functional, cell-based
[19] = NIH-3T3 fibroblast cytotoxicity, dose response, cytotoxicity control, cell-based, fluorescence, Alamar Blue, secondary assay (AID 2327); assay type: functional;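 also: NIH-3T3 mouse fibroblasts cultured with fluconazole at 8 µg/mL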
[20] = target: T5, Neuropeptide Y receptor type 2 (Homo sapiens, UniProt P49146); assay: NPY-Y2 antagonist potency, selectivity check, dose response, counter-screen for NPY-Y1 antagonist project, cell-based (AID 1278); assay type: functional
T5 sequence (P49146 whole entry): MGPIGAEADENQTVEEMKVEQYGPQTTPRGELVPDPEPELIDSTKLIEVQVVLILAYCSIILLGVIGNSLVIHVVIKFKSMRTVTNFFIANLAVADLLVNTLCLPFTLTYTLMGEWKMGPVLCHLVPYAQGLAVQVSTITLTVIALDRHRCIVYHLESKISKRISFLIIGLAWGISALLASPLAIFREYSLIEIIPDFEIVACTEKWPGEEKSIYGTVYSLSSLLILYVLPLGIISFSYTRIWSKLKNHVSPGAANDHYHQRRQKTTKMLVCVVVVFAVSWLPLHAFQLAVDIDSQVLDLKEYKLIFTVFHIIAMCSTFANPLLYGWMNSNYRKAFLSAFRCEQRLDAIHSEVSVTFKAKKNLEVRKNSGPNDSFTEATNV

[21] = target: Neurotensin receptor type 1 (Homo sapiens, UniProt P30989); assay type: functional;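 also: Image-based confirmatory dose-response assay measuring agonist activity at NTR1; NTR1-expressing U2OS osteosarcoma cells imaged for beta-arrestin GFP spot formation; agonist potency where compounds increase beta-arrestin recruitment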
[22] = target: T6, Microphthalmia-associated transcription factor (Homo sapiens, UniProt O75030); assay: TRPM1 promoter luciferase signal decrease, dose response, MITF inhibitor project, cell-based, SK-MEL-5, cherry-picked, set 3 (AID 493073); assay type: functional
T6 sequence (O75030 whole entry): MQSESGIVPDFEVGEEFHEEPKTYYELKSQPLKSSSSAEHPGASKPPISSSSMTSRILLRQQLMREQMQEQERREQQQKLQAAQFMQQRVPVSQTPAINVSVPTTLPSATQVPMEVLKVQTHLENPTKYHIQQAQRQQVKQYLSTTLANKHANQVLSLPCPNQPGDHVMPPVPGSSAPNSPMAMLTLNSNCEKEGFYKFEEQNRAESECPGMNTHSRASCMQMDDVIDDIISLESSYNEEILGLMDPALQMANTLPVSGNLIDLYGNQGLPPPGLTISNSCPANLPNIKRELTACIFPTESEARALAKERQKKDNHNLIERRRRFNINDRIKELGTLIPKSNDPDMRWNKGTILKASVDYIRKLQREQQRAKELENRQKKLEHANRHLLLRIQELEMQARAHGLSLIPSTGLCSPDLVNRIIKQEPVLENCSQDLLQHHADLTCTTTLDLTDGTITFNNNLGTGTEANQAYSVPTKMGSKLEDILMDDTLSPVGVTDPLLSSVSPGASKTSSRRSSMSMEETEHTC

[23] = system: Streptococcus; assay: Group A Streptococcus viability loss, dose response, counter-screen for streptokinase expression inhibitor project, luminescence, BacTiterGlo (AID 1915); assay type: functional, organism-based;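 also: potency for reduction of bacterial viability or growth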
[24] = system: Streptococcus sp. 'group A'; assay: growth inhibition of control SK(-) GAS strain, dose response, counter-screen for streptokinase expression inhibitor project, luminescence, kanamycin, BacTiterGlo, confirmation (AID 1900); assay type: functional, organism-based
[25] = Luminescence-based counterscreen assay for KLF5 inhibitors: dose response cell-based high throughput screening assay to identify cytotoxic compounds using the IEC-6 intestinal epithelial cell line. [Related pubchem assays: 1700 (Primary screen.), 1834 (Confirmation screen.), 1858 (Summary AID.), 1905 (Counterscreen.)]; assay type: functional
[26] = target: X-box-binding protein 1 (Homo sapiens, UniProt P17861); assay type: functional, Cricetulus griseus;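 also: confirmatory dose-response counter-screen serving a CHOP assay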

Compound: COC(=O)c1c(-c2ccncc2)csc1NC(=O)c1ccoc1C
- IC50 [1]: > 109 µM (inactive)
- IC50 [2]: > 83.3 µM (inactive)
- EC50 [3]: 23.1 µM (active)

Compound: Fc1ccc(CNCc2cccc(Br)c2)cc1
- AC50 [4]: 30.2 µM (active)

Compound: COc1cccc(N2CCN(C3=C(Cl)C(=O)N(c4ccc(Cl)c(Cl)c4)C3=O)CC2)c1
- IC50 [5]: 4.83 µM (active)
- IC50 [6]: 1.26 µM (active)
- IC50 [7]: > 100 µM (not active)

Compound: COc1ccc(-c2ccc(-c3noc(-c4cccs4)n3)c(OC)n2)cc1
- EC50 [3]: 12.9 µM (active)

Compound: Cc1cccc(CSCCNC(=O)COc2ccc(Cl)cc2)c1
- EC50 [8]: > 195 µM (not active)
- IC50 [9]: 13.3 µM (not active)

Compound: CCCNc1nc(N2CCOCC2)nc(N2CCOCC2)n1
- IC50 [10]: > 50 µM (not active)

Compound: FC(F)(F)Oc1ccc(/C=N/Nc2c(Cl)cncc2Cl)cc1
- IC50 [11]: > 17 µM (not active)

Compound: COc1ccc(C(=O)Nc2ccc3c(c2)OCCO3)cc1
- EC50 [12]: < 0.2 µM (active)
- EC50 [13]: > 50 µM (not active)

Compound: C=CCn1c(SCc2c(C)noc2C)nnc1C1COc2ccccc2O1 (stereo unspecified)
- IC50 [14]: 24.7 µM (active)

Compound: Cc1ccc(-[n+]2c(-c3ccccc3)cn3c2CCc2ccccc2-3)c(C)c1
- IC50 [15]: 3.65 µM (active)
- IC50 [16]: > 80 µM (inactive)
- AC50 [17]: 1.91 µM (active)
- EC50 [18]: 1.24 µM (active)
- EC50 [19]: 96.9 µM (active)
- IC50 [20]: 5.9 µM (active)

Compound: COc1ccc(S(=O)(=O)N2CCN(c3ccccc3OC)CC2)cc1OC
- IC50 [14]: 23.3 µM (active)

Compound: O=C1Nc2ccccc2C12OCCS2 (stereo unspecified)
- IC50 [10]: > 50 µM (not active)

Compound: CCOC(=O)c1ccc(NC(=O)c2ccc(C)c(S(=O)(=O)N3CCOCC3)c2)cc1
- EC50 [21]: 17.3 µM (active)
- AC50 [22]: 5.36 µM (active)

Compound: COc1cccc(/C=N/NC(=O)c2cc3c(OC)ccc(OC)c3[nH]2)c1O
- EC50 [23]: 3.31 µM (active)
- EC50 [24]: 1.23 µM (active)
- IC50 [25]: 16.3 µM (not active)
- AC50 [17]: 4.13 µM (active)

Compound: C[C@@H]1CN(C2=C(Cl)C(=O)N(c3ccc(Cl)c(Cl)c3)C2=O)[C@@H](C)CN1
- IC50 [5]: 8.29 µM (active)
- IC50 [6]: 15.9 µM (active)
- IC50 [7]: > 100 µM (not active)

Compound: CCC(C)(C(=O)NC1CCCCC1)N(Cc1ccco1)C(=O)Cc1cccs1 (stereo unspecified)
- IC50 [15]: 12.3 µM (not active)
- IC50 [20]: > 35 µM (not active)

Compound: O=[N+]([O-])c1cc(O/N=C/c2ccccc2)cc([N+](=O)[O-])c1
- IC50 [11]: > 17 µM (not active)

Compound: CCCOc1ccc(N2C(=O)CC(SC(=NC)Nc3ccc(F)cc3)C2=O)cc1 (stereo unspecified)
- Absolute IC50 (XBP1) [26]: 10 µM

— ChEMBL document CHEMBL1201862, “PubChem BioAssay data set” (2004)
